# According to patent US20040092575A1, “Use of certain substituted pyrrolidones such as piracetam in the treatment of viral and other diseases” (priority 2001, published 2004):
# Legend:
# viral tilted peptide = test: fusion process induced on LUV by the viral tilted peptide (analogues); conditions: at the doses tested
# Text: The same in vitro study as in Example 1 was used to investigate two analogues (levetiracetam and (R)-(−)-alpha-ethyl-2-oxo-1-pyrrolidine acetamide) in comparison with piracetam.
# [1] = system: A-201 cells devoid of CD4 receptors; test: formation of syncitia by fusion of infected cells with uninfected neighbouring cells, A-201 cells; type: cell-based, HIV; conditions: no CD4 receptor, accordingly to the doses used
# Text: (§1) HV has the property on cultured cells to provoke the formation of syncitia by fusion of infected cells with uninfected neighboring cells, when the virus ends its replication.
# (§2) Virus have become remarkably opportunistic in exploring whatever complicated shapes they may find on the host cell surface as binding receptors (e.g. CD4, CXCR4, CCR5, CKR-5, CKR-3).
# (§3) This study therefore investigated the ability of piracetam to inhibit the formation of syncitia, […], the primary binding receptor of HIV. For this purpose, two cultures of cells were used, A-201 cells devoid of CD4 receptors and SUP-Ti cells presenting CD4 receptors.
# hepatitis C virus (HCV) = test: Effect of piracetam on patients exhibiting chronic C virus hepatitis; type: in vivo
# Text: 6 patients with chronic transfusion associated hepatitis C virus (HCV) received 6 months therapy with piracetam at a daily dose of 10.8 g (3×3.6 g/d) with no other treatment associated. This was followed by a 3 months period of no treatment. All patients, interferon non-responders, had chronic hepatitis from 6 to 19 years. The main criterion of efficacy was serum viral load (HCV-RNA) performed by polymerase chain reaction (PCR) at 0, 3, 6 and 9 months. These patients had manifested a gradual rise in their HCV-RNA. Thus, the criteria for no response was defined as no change in the increase of HCV-RNA, a positive response as a status quo of serum HVC-RNA and a significant response as a decrease of at least half a log of HCV-RNA.
# acute viral hepatitis = test: Effect of piracetam on patients exhibiting acute viral hepatitis; type: in vivo
# Method: 110 patients with acute hepatitis, hospitalised from the first or the second week of icterus, were included in the study. All patients were assigned to rest, and received diet and vitamins.
# A first group received piracetam at a daily dose of 2.4 g (3×0.8 g/day), a second group received no piracetam and acted as control group. The main parameters were serum bilirubine and transaminases, measured once a week during the whole icterus period.
# Inclusion criteria were bilirubine ([…]) (N<0.3) and transaminases (>400 U) (N<40).
# The criteria for a positive response were bilirubine <1.5 mg/dl and transaminases <100 U.
# [2] = target: T1, Alzheimer's β-amyloid tilted peptide 29-42 (Homo sapiens, UniProt P05067); test: fusion process induced by Alzheimer's β-amyloid tilted peptide 29-42 on membrane models; conditions: amyloid peptide 29-42
# T1 construct: two Alzheimer's β-amyloid tilted peptides (29-40 and 29-42) on membrane models
# Method: (§4) Four fundamental studies using different tools such as conformational analysis, biophysical methods, NMR and two-hybrid assay were carried out.
# [3] = system: herpes simplex virus 1 (HSV1); conditions: Vero cells culture, in vitro; cited from earlier work
# [4] = target: T2, titled peptide of HUV-wt (wild type)(16 AA) (Human immunodeficiency virus type 1 group M subtype B, UniProt P04578); test: fusion of large unilamellar vesicles (LUV) provoked by tilted peptide of HUV-wt; design: species or system HIV; conditions: at the doses tested
# T2 construct: titled peptide of HUV-wt (wild type)(16 AA)
# [5] = system: SUP-Ti cells presenting CD4 receptors; test: formation of syncitia by fusion of infected cells with uninfected neighbouring cells, SUP-Ti cells; type: cell-based, HIV; conditions: CD4 receptor present, accordingly to the doses used
# Text: as §1, §2, §3
# [6] = target: T3, Alzheimer's β-amyloid tilted peptide 29-40 (Homo sapiens, UniProt P05067); test: fusion process induced by Alzheimer's β-amyloid tilted peptide 29-40 on membrane models; conditions: amyloid peptide 29-40
# T3 construct: two Alzheimer's β-amyloid tilted peptides (29-40 and 29-42) on membrane models
# Method: as §4
# [7] = target: titled peptide of SIV-wt (12AA) (Simian immunodeficiency virus, UniProt P05885); test: fusion of large unilamellar vesicles (LUV) provoked by tilted peptide of SIV-wt; conditions: at the doses tested
# [8] = patients receiving piracetam from the first week of icterus
# [9] = piracetam introduced after incubation of peptide with liposomes, whatever the dose
# [10] = preincubation of piracetam before addition of the peptide
smiles,measurement,setting,value
CC[C@H](C(N)=O)N1CCCC1=O [(R)-(−) alpha-ethyl-2-oxo-1-pyrrolidineacetamide],inhibitory effect on the fusion process induced on LUV,viral tilted peptide,very clear inhibitory effect
"CC[C@@H](C(N)=O)N1CCCC1=O [levetiracetam, (S)-α-ethyl-2-oxo-1-pyrrolidineacetamide]",inhibitory effect on the fusion process induced on LUV,viral tilted peptide,very clear inhibitory effect
"NC(=O)CN1CCCC1=O [piracetam, 2-oxo-pyrrolidineacetamide]",inhibition of the formation of syncitia,[1],inhibited
same,Clinical tolerance,"hepatitis C virus (HCV); chronic HCV patients, 10.8 g daily (3×3.6 g/d), 6 months",excellent
same,change of serum HCV-RNA,"hepatitis C virus (HCV); four of 6 patients, PCR, 10.8 g daily",decrease
same,decrease of serum HCV-RNA,"hepatitis C virus (HCV); the patient most recently infected (6 years), significant",< 0.6 log
same,increase of serum HCV-RNA,"hepatitis C virus (HCV); two of 6 patients, PCR, 10.8 g daily",< 10%
same,Clinical tolerance,"acute viral hepatitis; acute hepatitis patients, 2.4 g daily (3×0.8 g/day)",excellent
same,reduction of the icterus phase,"acute viral hepatitis; compared to the control group, except for 6 patients out of 49",50%
same,evolution in serum bilirubine levels,acute viral hepatitis; [8],positive evolution was especially observed
same,evolution in serum transaminases,acute viral hepatitis; [8],more pronounced
same,bilirubine levels,acute viral hepatitis; patients receiving piracetam from the second week of icterus,not significantly reduced
same,evolution in serum transaminases,"acute viral hepatitis; patients receiving piracetam, 2.4 g daily","favourable, although non-significant"
same,evolution in serum bilirubine levels,"acute viral hepatitis; piracetam group vs control group, 2.4 g daily, p<0.0003",very highly significantly reduced
same,inhibition of the fusion process on membrane models,[2]; four studies overall,inhibit the fusion process
same,inhibition of the fusion process,[2]; [9],not able to inhibit
same,inhibition of the fusion process,[2]; [10],inhibits almost completely
same,ability to stop the replication of HSV1,[3],stop the replication
same,inhibition of the fusion of LUV,[4],inhibits the fusion of LUV
same,inhibition of the formation of syncitia,[5],inhibited
same,inhibition of the fusion process on membrane models,[6]; four studies overall,inhibit the fusion process
same,inhibition of the fusion process,[6]; [9],not able to inhibit
same,inhibition of the fusion process,[6]; [10],inhibits almost completely
same,inhibition of the fusion of LUV,[7],inhibits the fusion of LUV
